The source of these data is US20160002248A1, “GLS1 INHIBITORS FOR TREATING DISEASE” (Board of Regents, The University of Texas System, priority 2014, published 2016).

The subject of one assay is A549 cells. The experiment in a line: Proliferation Assay (A549 cell viability, Cell Titer Fluor). In kind it is cell-based. The conditions noted are these: Homo sapiens, 72 hours. The gist of the method: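 1000 A549 cells/well, RPMI 1640/10% dialyzed FBS, 24 h attach; compound 72 h, 0.5% DMSO, 37 °C/5% CO2; Cell Titer Fluor fluorescence; EC50 via 4-parameter logistic.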

Assay [1] addresses T1, purified recombinant human GAC (GLS1) (Homo sapiens, UniProt O94925).
T1 sequence (O94925 55-598 isoform O94925-3 limits assumed): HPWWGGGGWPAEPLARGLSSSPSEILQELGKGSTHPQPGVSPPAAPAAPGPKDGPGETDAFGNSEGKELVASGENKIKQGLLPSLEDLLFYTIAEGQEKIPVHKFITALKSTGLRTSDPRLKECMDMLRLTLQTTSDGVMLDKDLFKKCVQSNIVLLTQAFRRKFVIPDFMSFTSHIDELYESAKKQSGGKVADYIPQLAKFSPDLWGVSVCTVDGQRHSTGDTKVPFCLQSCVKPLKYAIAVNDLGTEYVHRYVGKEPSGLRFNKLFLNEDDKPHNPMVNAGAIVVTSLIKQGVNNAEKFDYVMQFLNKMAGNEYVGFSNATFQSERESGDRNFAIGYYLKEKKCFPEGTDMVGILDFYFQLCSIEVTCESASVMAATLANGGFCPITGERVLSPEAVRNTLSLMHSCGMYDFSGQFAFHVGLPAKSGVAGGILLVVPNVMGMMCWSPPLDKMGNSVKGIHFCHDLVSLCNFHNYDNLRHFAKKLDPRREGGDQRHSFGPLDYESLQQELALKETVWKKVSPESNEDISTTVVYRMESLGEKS
Briefly: GLS1 Enzymatic Activity Assay (dual-coupled enzymatic assay). In kind it is biochemical. The gist of the method: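 GAC activity measured by coupling glutamate to glutamate oxidase and HRP, generating resorufin from Amplex UltraRed. Enzyme (2 nM) preincubated with 50 mM potassium phosphate 10 min at room temperature, then inhibitor 10 min; 1 mM glutamine substrate, 1% DMSO. Fluorescence 530/590 nm, kinetic or 20-min endpoint; IC50 from four-parameter logistic fit.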

One may read the EC50 as the midpoint of the concentration-response curve. Read a low EC50 as greater potency. The term IC50 denotes the point on the concentration scale where inhibition reaches its midpoint. In the assay with A549 cells, `Cc1ccc(CNC(=O)c2cn(CCCCc3cc4cc(-c5ccccc5C(F)(F)F)[nH]c4nn3)nn2)cn1` [Example 215, N-[(6-methylpyridin-3-yl)methyl]-1-(4-{6-[2-(trifluoromethyl)phenyl]-7H-pyrrolo[2,3-c]pyridazin-3-yl}butyl)-1H-1,2,3-triazole-4-carboxamide] displayed an EC50 of 100 to 500 nM. The IC50 in assay [1] was under 100 nM.

Turning to `O=C(NCc1cc(C(F)(F)F)ccn1)c1cn(CCCCc2cc3c(C4CC4)c(C4CCCC4)[nH]c3nn2)nn1` [Example 216, 1-(4-{6-cyclopentyl-5-cyclopropyl-7H-pyrrolo[2,3-c]pyridazin-3-yl}butyl)-N-{[4-(trifluoromethyl)pyridin-2-yl]methyl}-1H-1,2,3-triazole-4-carboxamide], the EC50 with A549 cells lay in the range of 100 to 500 nM. For the same compound, the IC50 in assay [1] is under 100 nM.

`O=C(NCc1ccc(C(F)(F)F)nc1)c1cn(CCCCc2cc3c(-c4ccc(F)cc4F)c(C4CC4)[nH]c3nn2)nn1` [Example 217, 1-(4-(6-cyclopropyl-5-(2,4-difluorophenyl)-7H-pyrrolo[2,3-c]pyridazin-3-yl)butyl)-N-((6-(trifluoromethyl)pyridin-3-yl)methyl)-1H-1,2,3-triazole-4-carboxamide]: in the assay on A549 cells, the EC50 lay in the range of 100 to 500 nM. Also, in assay [1], the IC50 was under 100 nM.

On to `O=C(NCc1ccc(C(F)(F)F)cn1)c1cn(CCCCc2cc3c(-c4ccc(F)cc4F)c(C4CC4)[nH]c3nn2)nn1` [Example 218, 1-{4-[6-cyclopropyl-5-(2,4-difluorophenyl)-7H-pyrrolo[2,3-c]pyridazin-3-yl]butyl}-N-{[5-(trifluoromethyl)pyridin-2-yl]methyl}-1H-1,2,3-triazole-4-carboxamide], for which the EC50 with A549 cells was in the range of 100 to 500 nM. Moreover, in assay [1], the IC50 is under 100 nM.

In turn, `O=C(NCc1cc(C(F)(F)F)ccn1)c1cn(CCCCc2cc3c(-c4ccc(F)cc4F)c(C4CC4)[nH]c3nn2)nn1` [Example 219, 1-{4-[6-cyclopropyl-5-(2,4-difluorophenyl)-7H-pyrrolo[2,3-c]pyridazin-3-yl]butyl}-N-{[4-(trifluoromethyl)pyridin-2-yl]methyl}-1H-1,2,3-triazole-4-carboxamide] returned an EC50 in the assay with A549 cells of under 100 nM. For the same compound, in assay [1], the IC50 is under 100 nM.

As for `O=C(NCc1cccc(C(F)(F)F)n1)c1cn(CCCCc2cc3c(-c4ccc(F)cc4F)c(C4CC4)[nH]c3nn2)nn1` [Example 220, 1-{4-[6-cyclopropyl-5-(2,4-difluorophenyl)-7H-pyrrolo[2,3-c]pyridazin-3-yl]butyl}-N-{[6-(trifluoromethyl)pyridin-2-yl]methyl}-1H-1,2,3-triazole-4-carboxamide], the EC50 in the assay on A549 cells lay within 100 to 500 nM. Besides, the IC50 in assay [1] was under 100 nM.

`O=C(NCc1cncc(C(F)(F)F)c1)c1cn(CCCCc2cc3c(-c4ccc(F)cc4F)c(C4CC4)[nH]c3nn2)nn1` [Example 221, 1-{4-[6-cyclopropyl-5-(2,4-difluorophenyl)-7H-pyrrolo[2,3-c]pyridazin-3-yl]butyl}-N-{[5-(trifluoromethyl)pyridin-3-yl]methyl}-1H-1,2,3-triazole-4-carboxamide] yielded an EC50 with A549 cells of under 100 nM. Moreover, the IC50 in assay [1] was under 100 nM.

Consider `O=C(NCc1ccc(CF)nc1)c1cn(CCCCc2cc3c(-c4ccc(F)cc4F)c(C4CC4)[nH]c3nn2)nn1` [Example 222, 1-{4-[6-cyclopropyl-5-(2,4-difluorophenyl)-7H-pyrrolo[2,3-c]pyridazin-3-yl]butyl}-N-{[6-(fluoromethyl)pyridin-3-yl]methyl}-1H-1,2,3-triazole-4-carboxamide], for which the EC50 with A549 cells was in the range of 100 to 500 nM. Moreover, the IC50 in assay [1] is under 100 nM.

`O=C(NCc1cc(OC(F)(F)F)ccc1F)c1cn(CCCCc2cc3cc(C4CN(C(=O)C5CCC5)C4)[nH]c3nn2)nn1` [Example 223, 1-{4-[6-(1-cyclobutanecarbonylazetidin-3-yl)-7H-pyrrolo[2,3-c]pyridazin-3-yl]butyl}-N-{[2-fluoro-5-(trifluoromethoxy)phenyl]methyl}-1H-1,2,3-triazole-4-carboxamide]: the EC50 in the assay on A549 cells was under 100 nM. The IC50 in assay [1] was under 100 nM.

On to `O=C(NCc1cc(OC(F)(F)F)ccc1F)c1cn(CCCCc2cc3cc(C4CN(C(=O)C5CC5)C4)[nH]c3nn2)nn1` [Example 224, 1-{4-[6-(1-cyclopropanecarbonylazetidin-3-yl)-7H-pyrrolo[2,3-c]pyridazin-3-yl]butyl}-N-{[2-fluoro-5-(trifluoromethoxy)phenyl]methyl}-1H-1,2,3-triazole-4-carboxamide], for which the EC50 with A549 cells fell in the range of 100 to 500 nM. The IC50 in assay [1] was under 100 nM.

Take `O=C(NCc1cc(OC(F)(F)F)ccc1F)c1cn(CCCCc2cc3cc(C4CN(C(=O)C5(C(F)(F)F)CC5)C4)[nH]c3nn2)nn1` [Example 225, N-{[2-fluoro-5-(trifluoromethoxy)phenyl]methyl}-1-[4-(6-{1-[1-(trifluoromethyl)cyclopropane-carbonyl]azetidin-3-yl}-7H-pyrrolo[2,3-c]pyridazin-3-yl)butyl]-1H-1,2,3-triazole-4-carboxamide]: the EC50 in the assay with A549 cells was under 100 nM. For the same compound, the IC50 in assay [1] is under 100 nM.

Regarding `O=C(NCc1cc(OC(F)(F)F)ccc1F)c1cn(CCCCc2cc3cc(C4CN(C(=O)C5CC(F)(F)C5)C4)[nH]c3nn2)nn1` [Example 226, 1-(4-{6-[1-(3,3-difluorocyclobutanecarbonyl)azetidin-3-yl]-7H-pyrrolo[2,3-c]pyridazin-3-yl}butyl)-N-{[2-fluoro-5-(trifluoromethoxy)phenyl]methyl}-1H-1,2,3-triazole-4-carboxamide], the EC50 in the assay on A549 cells fell in the range of 100 to 500 nM. For the same compound, in assay [1], the IC50 was under 100 nM.

On to `CC(C)(F)C(=O)N1CC(c2cc3cc(CCCCn4cc(C(=O)NCc5cc(OC(F)(F)F)ccc5F)nn4)nnc3[nH]2)C1` [Example 227, 1-(4-{6-[1-(2-fluoro-2-methylpropanoyl)azetidin-3-yl]-7H-pyrrolo[2,3-c]pyridazin-3-yl}butyl)-N-{[2-fluoro-5-(trifluoromethoxy)phenyl]methyl}-1H-1,2,3-triazole-4-carboxamide], for which the half-maximal effective concentration (EC50) in the assay on A549 cells is under 100 nM. Also, the half-maximal inhibitory concentration (IC50) in assay [1] was under 100 nM.

`COc1ccccc1-c1cc2cc(CCCCn3cc(C(=O)NCc4ccc(C)nc4)nn3)nnc2[nH]1` [Example 228, 1-{4-[6-(2-methoxyphenyl)-7H-pyrrolo[2,3-c]pyridazin-3-yl]butyl}-N-[(6-methylpyridin-3-yl)methyl]-1H-1,2,3-triazole-4-carboxamide] gave an EC50 with A549 cells of under 100 nM. Also, in assay [1], the IC50 was under 100 nM.

For the compound `CC(C)(C(=O)N1CC(c2cc3cc(CCCCn4cc(C(=O)NCc5cc(OC(F)(F)F)ccc5F)nn4)nnc3[nH]2)C1)C(F)(F)F` [Example 229, N-(2-fluoro-5-(trifluoromethoxy)benzyl)-1-(4-(6-(1-(3,3,3-trifluoro-2,2-dimethylpropanoyl)azetidin-3-yl)-7H-pyrrolo[2,3-c]pyridazin-3-yl)butyl)-1H-1,2,3-triazole-4-carboxamide], the EC50 with A549 cells is under 100 nM. Further, the IC50 in assay [1] was under 100 nM.

As to `CC(C)S(=O)(=O)N1CC(c2cc3cc(CCCCn4cc(C(=O)NCc5cc(OC(F)(F)F)ccc5F)nn4)nnc3[nH]2)C1` [Example 230, N-{[2-fluoro-5-(trifluoromethoxy)phenyl]methyl}-1-(4-{6-[1-(propane-2-sulfonyl)azetidin-3-yl]-7H-pyrrolo[2,3-c]pyridazin-3-yl}butyl)-1H-1,2,3-triazole-4-carboxamide], the EC50 with A549 cells lay within 100 to 500 nM. Further, the IC50 in assay [1] is under 100 nM.

In the assay on A549 cells, `Cc1ccc(CNC(=O)c2cn(CC(F)CCc3cc4cc(C5CC5)[nH]c4nn3)nn2)cn1` (stereo not shown) [Example 231, 1-(4-{6-cyclopropyl-7H-pyrrolo[2,3-c]pyridazin-3-yl)-2-fluorobutyl)-N-[(6-methylpyridin-3-yl)methyl]-1H-1,2,3-triazole-4-carboxamide] returned an EC50 of 100 to 500 nM. In assay [1], the IC50 was under 100 nM.

Take `Cc1ccc(CNC(=O)c2cn(CCCCc3cc4cc(-c5cc(F)cc(F)c5)[nH]c4nn3)nn2)cn1` [Example 232, 1-{4-[6-(3,5-difluorophenyl)-7H-pyrrolo[2,3-c]pyridazin-3-yl]butyl}-N-[(6-methylpyridin-3-yl)methyl]-1H-1,2,3-triazole-4-carboxamide]: the EC50 with A549 cells is 100 to 500 nM. Moreover, in assay [1], the IC50 is under 100 nM.

`O=C(NCc1cc(OC(F)(F)F)ccc1F)c1cn(CCCCc2cc3cc(C4CN(C(=O)OC5CCC5)C4)[nH]c3nn2)nn1` [Example 233, cyclobutyl 3-(3-{4-[4-({[2-fluoro-5-(trifluoromethoxy)phenyl]methyl}carbamoyl)-1H-1,2,3-triazol-1-yl]butyl}-7H-pyrrolo[2,3-c]pyridazin-6-yl)azetidine-1-carboxylate] yielded an EC50 in the assay on A549 cells of under 100 nM. In addition, the IC50 in assay [1] is under 100 nM.

For `O=C(NCc1cc(OC(F)(F)F)ccc1F)c1cn(CCCCc2cc3cc(C4CN(S(=O)(=O)C(F)(F)F)C4)[nH]c3nn2)nn1` [Example 234, N-{[2-fluoro-5-(trifluoromethoxy)phenyl]methyl}-1-{4-[6-(1-trifluoromethanesulfonyl-azetidin-3-yl)-7H-pyrrolo[2,3-c]pyridazin-3-yl]butyl}-1H-1,2,3-triazole-4-carboxamide], in the assay on A549 cells, the EC50 was under 100 nM. Moreover, in assay [1], the IC50 was under 100 nM.
